ChEMBL document CHEMBL1201862, “PubChem BioAssay data set” (2004)
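Grown in 96-well plates, cells were treated for 48 hours with each compound at five concentrations. Insufficient inhibition: endpoint recorded as highest concentration tested. At the GI50, growth is halved.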 Calls of active or inactive are those of the source. Cut-off read from the data, not from the text of the source: active = GI50 up to about 1.1 µM and inactive = higher.

Key:
Assay in all cases: NCI tumour cell line growth inhibition, 48 h
[1] = system: EKVX
[2] = system: HCC 2998
[3] = system: HOP-92
[4] = system: OVCAR-3
[5] = system: UACC-257
[6] = system: OVCAR-5
[7] = system: K562
[8] = system: NCI-H522
[9] = system: SK-MEL-28
[10] = system: HT-29
[11] = system: OVCAR-4
[12] = system: SF-268
[13] = system: U-251
[14] = system: ACHN
[15] = system: Malme-3M
[16] = system: SK-MEL-5
[17] = system: LXFL 529
[18] = system: SNB-19
[19] = system: XF498
[20] = system: UO-31
[21] = system: KM12
[22] = system: A498
[23] = system: TK-10
[24] = system: M19-MEL
[25] = system: SNB-78
[26] = system: A549
[27] = system: RXF 393
[28] = system: HCT-116
[29] = system: DMS-273
[30] = system: MOLT-4
[31] = system: DLD-1
[32] = system: HOP-18
[33] = system: COLO 205
[34] = system: NCI-H23
[35] = system: SF-539
[36] = system: HCT-15
[37] = system: SNB-75
[38] = system: 786-0
[39] = system: HOP-62
[40] = system: LOX IMVI
[41] = system: IGROV-1
[42] = system: SN12C
[43] = system: RXF 631
[44] = system: DMS-114
[45] = system: RPMI-8226
[46] = system: SF-295
[47] = system: M14
[48] = system: OVCAR-8
[49] = system: NCI-H460
[50] = system: SK-MEL-2
[51] = system: SW-620
[52] = system: CAKI-1
[53] = system: KM-20L2
[54] = system: SK-OV-3
[55] = system: UACC-62
[56] = system: NCI-H226
[57] = system: SR
[58] = system: CCRF-CEM
[59] = system: HL-60

Measured: GI50

COc1nc2nccc-2c2occn12
inactive: [1] > 100 µM | [2] > 100 µM | [3] > 100 µM | [4] > 100 µM | [5] > 100 µM | [6] > 100 µM | [7] > 100 µM | [8] > 100 µM | [9] > 100 µM | [10] > 100 µM | [11] > 100 µM | [12] > 100 µM | [13] > 100 µM | [14] > 100 µM | [15] > 100 µM | [16] > 100 µM | [17] > 100 µM | [18] > 100 µM | [19] > 100 µM | [20] > 100 µM | [21] > 100 µM | [22] > 100 µM | [23] > 100 µM | [24] > 100 µM | [25] > 100 µM | [26] > 100 µM | [27] > 100 µM | [28] > 100 µM | [29] > 100 µM | [30] > 100 µM | [31] > 100 µM | [32] > 100 µM | [33] > 100 µM | [34] > 100 µM | [35] > 100 µM | [37] > 100 µM | [38] > 100 µM | [39] > 100 µM | [40] > 100 µM | [41] > 100 µM | [42] > 100 µM | [43] > 100 µM | [44] > 100 µM | [45] > 100 µM | [46] > 100 µM | [47] > 100 µM | [48] > 100 µM | [49] > 100 µM | [50] > 100 µM | [51] > 100 µM | [52] > 100 µM | [53] > 100 µM | [54] > 100 µM | [55] > 100 µM
> 100 µM: [36]

O=C1O[B-](c2ccccc2)(c2ccccc2)[NH2+]C1CS (centres undefined)
36 µM: [36]
inactive: [1] > 100 µM | [2] 49.7 µM | [3] 27.3 µM | [4] 38.8 µM | [5] 66.1 µM | [6] > 100 µM | [7] 23.9 µM | [56] 68.4 µM | [8] 43.3 µM | [9] 66.1 µM | [10] 71.3 µM | [11] 47.2 µM | [12] 96.4 µM | [13] 63.5 µM | [14] 36.7 µM | [15] 38.2 µM | [16] 55 µM | [17] 39.9 µM | [18] > 100 µM | [19] > 100 µM | [20] 52.2 µM | [21] 31.8 µM | [22] 41.8 µM | [23] 85.1 µM | [24] 35.3 µM | [25] 65.9 µM | [26] 92.3 µM | [27] 23.3 µM | [28] 33.7 µM | [29] 34.9 µM | [30] 25.4 µM | [31] 33 µM | [32] > 100 µM | [33] 33.4 µM | [34] 61.2 µM | [35] 57.7 µM | [37] 34.8 µM | [38] 21.4 µM | [39] > 100 µM | [40] 24.3 µM | [41] 78 µM | [42] 80.4 µM | [57] 28.8 µM | [43] 50.8 µM | [44] 34.9 µM | [45] 20.2 µM | [46] > 100 µM | [47] 52.6 µM | [48] > 100 µM | [49] 66.1 µM | [50] 83.8 µM | [51] 24.5 µM | [52] 35.6 µM | [53] 64.7 µM | [58] 17.7 µM | [54] > 100 µM | [55] 42 µM | [59] 23.9 µM
